Patent publication US5324502A, “Radiopharmaceuticals for imaging the heart” (priority 1992, dated 1994)
Read-outs that look alike come from different tables or passages of the source.

Assays:
[1] = Octanol/water partition coefficient of radiolabeled gallium complexes; assay type: physicochemical; details: octanol/tris buffer, pH 7
Method: Octanol/water partition coefficients were measured by vortex mixing 1 mL of 1-octanol and 1 mL of isotonic Tris buffer (pH 7.0) with a 1-5 μL sample of the radiolabeled gallium complex. Following centrifugation at >1200 g for 5 minutes, the octanol and aqueous phases were sampled and counted in an automatic well counter.

[2] = rat, in vivo, iv
Method: The gallium-67 complexes are prepared by ligand exchange from gallium-67 chloride, employing the tris(acetylacetonato)gallium(III) complex as an intermediate. The Ga-67 acetylacetonate in ethanol is reacted with the chelating ligand or ligand precursor at elevated temperature to form rapidly the desired gallium radiopharmaceutical. […] The biodistribution of several radiopharmaceuticals was determined in rats following intravenous injection using techniques previously described (M. A. Green, Nuclear Medicine and Biology 14:59-61, 1987; E. John and M. A. Green, J. Medicinal Chemistry, 33:1764-1770, 1990).
Under ether anesthesia, 1 to 3 μCi (0.1-0.2 mL) of no-carrier-added Ga-67 compound was administered by bolus injection into the femoral vein of male Sprague-Dawley rats. The ether anesthetized rats were sacrificed by decapitation at given time intervals post-injection, organs of interest were removed, weighed, and the gallium-67 activity counted. The biodistribution was calculated as a percentage of the injected dose per gram of tissue and percentage of injected dose per organ for each sample.

SMILES: [67Ga+3].[O-]c1ccccc1C=NCCCNCCNCCCN=Cc1ccccc1[O-] [Sal2 BAPEN, ^67 GaL^+ L = [bis(salicylaldimino)-N,N'-bis(3-aminopropyl)-ethylenediamine]]
- log P [1]: 0.56
- % injected dose in heart, 1 min [2]: 0.45 ± 0.01 % injected dose
- % injected dose in heart, 2 h [2]: 0.41 ± 0.03 % injected dose
- % Injected Dose per Gram Tissue, Blood ([2]; 1 min): 0.30 ± 0.01
- % Injected Dose per Gram Tissue, Brain ([2]; 1 min): 0.02 ± 0.01
- % Injected Dose per Gram Tissue, Heart ([2]; 1 min): 0.65 ± 0.02
- % Injected Dose per Gram Tissue, Kidney (one) ([2]; 1 min): 12.39 ± 0.55
- % Injected Dose per Gram Tissue, Liver ([2]; 1 min): 3.27 ± 0.44
- % Injected Dose per Gram Tissue, Lungs ([2]; 1 min): 0.85 ± 0.09
- % Injected Dose per Gram Tissue, Spleen ([2]; 1 min): 0.27 ± 0.03
- Heart/Blood ([2]; 1 min): 2.15 ± 0.05
- % Injected Dose per Gram Tissue, Blood ([2]; 2 h): 0.05 ± 0.01
- % Injected Dose per Gram Tissue, Brain ([2]; 2 h): 0.01 ± 0.003
- % Injected Dose per Gram Tissue, Heart ([2]; 2 h): 0.58 ± 0.05
- % Injected Dose per Gram Tissue, Kidney (one) ([2]; 2 h): 1.85 ± 0.30
- % Injected Dose per Gram Tissue, Liver ([2]; 2 h): 0.64 ± 0.10
- % Injected Dose per Gram Tissue, Lungs ([2]; 2 h): 0.24 ± 0.03
- % Injected Dose per Gram Tissue, Spleen ([2]; 2 h): 0.11 ± 0.01
- Heart/Blood ([2]; 2 h): 12.44 ± 0.42
- % Injected Dose per Gram Tissue, Blood ([2]; […]): 0.07 ± 0.01
- % Injected Dose per Gram Tissue, Brain ([2]; […]): 0.01 ± 0.001
- % Injected Dose per Gram Tissue, Heart ([2]; […]): 0.60 ± 0.03
- % Injected Dose per Gram Tissue, Kidney (one) ([2]; […]): 4.47 ± 0.62
- % Injected Dose per Gram Tissue, Liver ([2]; […]): 1.20 ± 0.16
- % Injected Dose per Gram Tissue, Lungs ([2]; […]): 0.29 ± 0.02
- % Injected Dose per Gram Tissue, Spleen ([2]; […]): 0.11 ± 0.01
- Heart/Blood ([2]; […]): 8.34 ± 0.66
